# Source: patent US12492173B2, “Herbicidal substituted N-tetrazolyl aryl carboxamides” (Bayer Aktiengesellschaft, priority 2019, dated 2025)
# Assays:
# Type in all cases: in vivo
# Matricaria inodora = assay: Post-emergence herbicidal action, MATIN; set-up: key: % herbicidal action vs untreated; 100 = plants died, 0 = like control
# Outline: (§1)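 Percent herbicidal effect was judged by eye against untreated controls around 3 weeks after foliar treatment, where 100% meant dead plants. Spraying took place at the one-leaf stage using wettable powder or emulsion concentrate diluted in water (600 to 800 l/ha) with added wetting agent at 0.2%.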
# Alopecurus myosuroides = assay: Post-emergence herbicidal action, ALOMY; set-up: key: % herbicidal action vs untreated; 100 = plants died, 0 = like control; details: for Herbicidal action against ALOMY: comparative experiment, 20 g of a.i./ha
# Outline: as §1
# Veronica persica = assay: Pre-emergence herbicidal action, VERPE; set-up: key to Herbicidal action against VERPE: % activity: 100 = plants have died, 0 = like control plants; details: for herbicidal action VERPE / herbicidal activity VERPE: dosage 320 g/ha; for Herbicidal action against VERPE: comparative experiment; for herbicidal activity VERPE: scored visually after 3 weeks vs untreated controls (100% = plants have died)
# Outline: (§2)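 Application took place on the soil surface immediately after sowing into sandy loam, using aqueous WP or EC preparations with 0.2% wetting agent. Visual percent scoring followed 3 weeks later, untreated pots serving as reference.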
# Echinochloa crus-galli = assay: Pre-emergence herbicidal action, ECHCG; set-up: key to Herbicidal action against ECHCG: % activity: 100 = plants have died, 0 = like control plants; details: for herbicidal action ECHCG / herbicidal activity ECHCG: dosage 320 g/ha; for Herbicidal action against ECHCG: comparative experiment; for herbicidal activity ECHCG: scored visually after 3 weeks vs untreated controls (100% = plants have died)
# Outline: as §2
# Setaria viridis = assay: Pre-emergence herbicidal action, SETVI; set-up: key to Herbicidal action against SETVI: % activity: 100 = plants have died, 0 = like control plants; details: for herbicidal action SETVI / herbicidal activity SETVI: dosage 320 g/ha; for herbicidal activity SETVI: scored visually after 3 weeks vs untreated controls (100% = plants have died); for Herbicidal action against SETVI: comparative experiment, 80 g of a.i./ha
# Outline: as §2
# Pharbitis purpurea = assay: Pre-emergence herbicidal action, PHBPU; details: dosage 320 g/ha, scored visually after 3 weeks vs untreated controls (100% = plants have died)
# Outline: as §2
# [1] = comparative experiment, post-emergence, 20 g of a.i./ha
Structure (SMILES),herbicidal action MATIN (Matricaria inodora; Dosage 80 g/ha),herbicidal action VERPE (Veronica persica) [%],herbicidal action ECHCG (Echinochloa crus-galli) [%],herbicidal action SETVI (Setaria viridis) [%],herbicidal activity SETVI (Setaria viridis) [%],herbicidal activity VERPE (Veronica persica) [%],herbicidal activity ECHCG (Echinochloa crus-galli) [%],further results
Cc1ccc(C(=O)Nc2nnnn2C)c(Cl)c1C[S+](C)[O-] (racemic) [Example 1-288],100,90,90,,,,,herbicidal action ALOMY (Alopecurus myosuroides; Dosage 80 g/ha): 80
Cc1c(C(=O)Nc2nnnn2C)ccc(C(F)F)c1C[S+](C)[O-] (centres unmarked) [Example 1-108],100,90,100,100,,,,
COc1c(C(=O)Nc2nnnn2C)ccc(C(F)(F)F)c1C[S+](C)[O-] (centres unmarked) [Example 1-135],100,100,100,,,,,
CCSCc1c(C(F)(F)F)ccc(C(=O)Nc2nnnn2C)c1SCC [Example 1-182],90,,,,100,100,100,herbicidal activity PHBPU (Pharbitis purpurea): 80%; Herbicidal action against VERPE (Veronica persica; 20 g of a.i./ha): 90; Herbicidal action against ECHCG (Echinochloa crus-galli; 20 g of a.i./ha): 80
CSCc1c(C)ccc(C(=O)Nc2nnnn2C)c1Cl [Example 1-287],100,100,80,90,,,,herbicidal action ALOMY (Alopecurus myosuroides; Dosage 80 g/ha): 90
CCS(=O)(=O)Cc1c(C(F)(F)F)ccc(C(=O)Nc2nnnn2C)c1Br [Example 1-385],,,,,100,100,100,"Herbicidal action against MATIN (Matricaria inodora; [1]): 90; herbicidal action MATIN (Matricaria inodora; post-emergence, dosage 80 g/ha): 90%; Herbicidal action against SETVI (Setaria viridis): 90; Herbicidal action against ALOMY (Alopecurus myosuroides; post-emergence): 80; herbicidal action ALOMY (Alopecurus myosuroides; post-emergence, dosage 80 g/ha): 90%; Herbicidal action against VERPE (Veronica persica; 80 g of a.i./ha): 100; Herbicidal action against ECHCG (Echinochloa crus-galli; 80 g of a.i./ha): 100"
Cn1nnnc1NC(=O)c1ccc(C(F)(F)F)c(CS(C)(=O)=O)c1C(F)(F)C(F)(F)F [Example 1-552],90,,,,100,100,100,herbicidal activity PHBPU (Pharbitis purpurea): 90%
CSCc1c(Cl)ccc(C(=O)Nc2nnnn2C)c1Cl [Example 1-559],,90,100,80,,,,"herbicidal action MATIN (Matricaria inodora; post-emergence, dosage 80 g/ha): 100%; herbicidal action ALOMY (Alopecurus myosuroides; post-emergence, dosage 80 g/ha): 90%"
COc1c(C(=O)Nc2nnnn2C)ccc(Cl)c1CSC [Example 1-570],,80,90,,,,,"Herbicidal action against MATIN (Matricaria inodora; post-emergence, dosage 80 g/ha): 90"
CCSCc1c(C(F)(F)F)ccc(C(=O)Nc2nnnn2CC)c1C [Example 2-86],,100,100,100,,,,"herbicidal action MATIN (Matricaria inodora; post-emergence, dosage 80 g/ha): 100%; herbicidal action ALOMY (Alopecurus myosuroides; post-emergence, dosage 80 g/ha): 90%"
CCn1nnnc1NC(=O)c1ccc(C(F)(F)F)c(CS(=O)(=O)CC)c1C [Example 2-88],90,100,100,100,,,,herbicidal action ALOMY (Alopecurus myosuroides; Dosage 80 g/ha): 90
CCn1nnnc1NC(=O)c1ccc(C(F)F)c(C[S+](C)[O-])c1C (centres unmarked) [Example 2-108],100,100,90,100,,,,herbicidal action ALOMY (Alopecurus myosuroides; Dosage 80 g/ha): 80
CCn1nnnc1NC(=O)c1ccc(C(F)F)c(CSC)c1SC [Example 2-170],100,,,,100,100,100,herbicidal action ALOMY (Alopecurus myosuroides; Dosage 80 g/ha): 80
CCn1nnnc1NC(=O)c1ccc(C(F)F)c(C[S+](C)[O-])c1SC (centres unmarked) [Example 2-171],100,,,,100,100,100,herbicidal activity PHBPU (Pharbitis purpurea): 90%
CCn1nnnc1NC(=O)c1ccc(S(C)(=O)=O)c(CS(C)(=O)=O)c1Cl [Example 2-280],,100,100,90,,,,
CCn1nnnc1NC(=O)c1ccc(C(F)(F)F)c(CS(=O)(=O)CC)c1Cl [Example 2-301],90,100,100,100,,,,herbicidal action ALOMY (Alopecurus myosuroides; Dosage 80 g/ha): 80
CCn1nnnc1NC(=O)c1ccc(C(F)(F)F)c(CSCC(F)(F)F)c1Cl [Example 2-311],100,,,,100,90,100,herbicidal action ALOMY (Alopecurus myosuroides; Dosage 80 g/ha): 90
CCn1nnnc1NC(=O)c1ccc(C(F)(F)F)c(C[S+]([O-])CC2CC2)c1Cl (centres unmarked) [Example 2-315],90,,,,100,100,100,herbicidal activity PHBPU (Pharbitis purpurea): 90%

Structure (SMILES),herbicidal action MATIN (Matricaria inodora; Dosage 80 g/ha),herbicidal action VERPE (Veronica persica) [%],herbicidal action ECHCG (Echinochloa crus-galli) [%],herbicidal action SETVI (Setaria viridis) [%],herbicidal activity SETVI (Setaria viridis) [%],herbicidal activity VERPE (Veronica persica) [%],herbicidal activity ECHCG (Echinochloa crus-galli) [%],further results
CCn1nnnc1NC(=O)c1ccc(Cl)c(CSC)c1Cl [Example 2-559],100,100,100,90,,,,herbicidal action ALOMY (Alopecurus myosuroides; Dosage 80 g/ha): 90
CCCn1nnnc1NC(=O)c1ccc(S(C)(=O)=O)c(CSC)c1C [Example 3-37],90,100,,,,,,
CCCn1nnnc1NC(=O)c1ccc(S(C)(=O)=O)c(CS(C)(=O)=O)c1C [Example 3-39],80,100,90,80,,,,
CCCn1nnnc1NC(=O)c1ccc(C(F)(F)F)c(CSCC)c1C [Example 3-86],90,100,100,90,,,,
CCCn1nnnc1NC(=O)c1ccc(C(F)(F)F)c(C[S+](C)[O-])c1OC (centres unmarked) [Example 3-135],100,,100,100,,,,
CCCn1nnnc1NC(=O)c1ccc(C(F)(F)F)c(CSC)c1SC [Example 3-161],90,100,100,90,,,,
CCCn1nnnc1NC(=O)c1ccc(C(F)F)c(CSC)c1SC [Example 3-170],100,,,,100,100,100,herbicidal activity PHBPU (Pharbitis purpurea): 80%
CCCn1nnnc1NC(=O)c1ccc(C(F)F)c(C[S+](C)[O-])c1SC (centres unmarked) [Example 3-171],90,,,,100,100,100,herbicidal activity PHBPU (Pharbitis purpurea): 90%
CCCn1nnnc1NC(=O)c1ccc(C(F)F)c(CS(C)(=O)=O)c1SC [Example 3-172],90,,,,100,100,100,herbicidal activity PHBPU (Pharbitis purpurea): 80%
CCCn1nnnc1NC(=O)c1ccc(C(F)(F)F)c(CS(C)(=O)=O)c1Cl [Example 3-298],100,,,,100,100,100,herbicidal activity PHBPU (Pharbitis purpurea): 90%
CCCn1nnnc1NC(=O)c1ccc(C(F)(F)F)c(CS(=O)(=O)CC)c1Cl [Example 3-301],100,100,100,100,,,,
CCCn1nnnc1NC(=O)c1ccc(C(F)(F)F)c(CSCC(F)(F)F)c1Cl [Example 3-311],100,100,80,100,,,,herbicidal action ALOMY (Alopecurus myosuroides; Dosage 80 g/ha): 100
CCCn1nnnc1NC(=O)c1ccc(C(F)F)c(CS(C)(=O)=O)c1Cl [Example 3-322],90,,,,100,100,100,herbicidal activity PHBPU (Pharbitis purpurea): 90%
CCCn1nnnc1NC(=O)c1ccc(C(F)F)c(CS(=O)(=O)CC)c1Cl [Example 3-325],,,,,100,,100,herbicidal activity PHBPU (Pharbitis purpurea): 100%
CCCn1nnnc1NC(=O)c1ccc(I)c(C[S+](C)[O-])c1Cl (centres unmarked) [Example 3-363],100,90,100,100,,,,herbicidal action ALOMY (Alopecurus myosuroides; Dosage 80 g/ha): 80
CCCn1nnnc1NC(=O)c1ccc(C(F)(F)F)c(CS(C)(=O)=O)c1Br [Example 3-382],90,100,90,,,,,
"CCS(=O)(=O)c1c(C(F)(F)F)ccc(C(=O)Nc2nnnn2C)c1Br [Example V-13, 2-bromo-3-(ethylsulfonyl)-N-(1-methyl-1-1H-tetrazol-5-yl)-4-(trifluoromethyl)benzamide, reference compound]",,,,,,,,Herbicidal action against MATIN (Matricaria inodora; [1]): 0; Herbicidal action against SETVI (Setaria viridis): 0; Herbicidal action against ALOMY (Alopecurus myosuroides; post-emergence): 0; Herbicidal action against VERPE (Veronica persica; 80 g of a.i./ha): 0; Herbicidal action against ECHCG (Echinochloa crus-galli; 80 g of a.i./ha): 0
